Measured values: PubChem BioAssay AID1259333 (Broad Institute, 2017)
Active and inactive are the calls of the source. How the calls were made is not given here; tested in parental BL2 cells.

Test: loss of cell viability by ATP content – CellTiter-Glo, cytotoxicity control, dose response (AID 1259333);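 further: 0% = vehicle neutral controls and -100% = reference inhibitor positive controls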
Settings: cytotoxicity, CellTiter-Glo ATP luminescence; at 3.5 µM (top of the series)

| SMILES | activity change, negative = cytotoxicity |
| --- | --- |
| C[C@@H]1CCCCO[C@@H](CN(C)C(=O)C2CCCCC2)[C@@H](C)CN([C@H](C)CO)C(=O)c2cc(NS(=O)(=O)c3ccccc3)ccc2O1 | 22.5% (inactive) |
| C[C@@H]1CN([C@@H](C)CO)C(=O)Cc2cc(NS(=O)(=O)c3ccccc3)ccc2O[C@H]1CN(C)Cc1ccc(Cl)c(Cl)c1 | 24.1% (inactive) |
| Cc1ccccc1NC(=O)c1nc(S(C)(=O)=O)ncc1Cl | 64.5% (inactive) |
| Cc1[nH]c2ccccc2c1C(c1ccccn1)N1CCC(C(N)=O)CC1 (stereo not drawn) | 29.7% (inactive) |

Same assay, conditions: cytotoxicity, CellTiter-Glo ATP luminescence; at 9 µM (top of the series)

| SMILES | activity change, negative = cytotoxicity |
| --- | --- |
| C[C@@H]1CN([C@H](C)CO)C(=O)c2c(c3ccccc3n2C)-c2ccccc2CO[C@@H]1CN(C)S(=O)(=O)c1ccccc1C#N | 42.3% (inactive) |

Same assay, conditions: cytotoxicity, CellTiter-Glo ATP luminescence; at 10 µM (top of the series)

| SMILES | activity change, negative = cytotoxicity |
| --- | --- |
| CCc1cnc(N2[C@H](C#N)[C@@H](c3ccc(C#CC(C)C)cc3)[C@H]2CO)s1 | 10.7% (inactive) |
| O=C1C(Br)=C(c2ccccc2)C(c2ccccc2)=C1c1ccccc1 | -18.2% (inactive) |
| CN(C)c1ccc(NC(=O)c2cnsn2)cc1 | 17.7% (inactive) |
| Cc1cc(C)c2c(c1)SC1=NC(c3ccccc3)(C(F)(F)F)NC(=O)N12 (stereo not drawn) | 30.7% (inactive) |
| COc1ccc2c3c([nH]c2c1)[C@H](CO)N(C(=O)Nc1cccc(F)c1)CC31CCN(S(=O)(=O)c2cccc(C)c2)CC1 | 35% (inactive) |
| CCc1cnc(N2[C@H](C#N)[C@H](c3ccc(C#Cc4ccccc4F)cc3)[C@H]2CO)s1 | 12.3% (inactive) |
| C/C=C/c1ccc(C2[C@H]3CNC[C@@H]2N3Cc2cccc(OC)c2)cc1 (stereo partly drawn) | 18% (inactive) |
| CC1CCOC(=O)C=CC=CC(=O)OC2CC3OC4C5OC5(C)C(O)CC4(COC(=O)C1O)C2(C)C31CO1 (stereo not drawn) | 6.8% (inactive) |
| C=C1C(=O)OC2CC1C(O)CC(C)=CCCC(C)=CC(O)CC2C (stereo not drawn) | 35.5% (inactive) |
| CC12CC[C@H]3[C@@H](CCC4(O)C[C@H](O)CCC34/C=N/NC(=O)Cc3ccccc3)C1(O)CCC2C1=CC(=O)OC1 (stereo partly drawn) | 25% (inactive) |
| O=C(CNC(=O)c1ccco1)Nc1ccc2c(c1)OCCO2 | -6.17% (inactive) |
| O=c1cc(-c2ccc(O)cc2)oc2ccc3ccccc3c12 | 20.1% (inactive) |
| CCc1cc2c(COC(=O)c3cc(S(=O)(=O)N4CCOCC4)ccc3F)cc(=O)oc2cc1O | 64% (inactive) |
| Cc1ccc(S(=O)(=O)N[C@@H](Cc2ccccc2)C(=O)CCl)cc1 | 82.4% (inactive) |
| CCc1cnc(N2[C@H](C#N)[C@@H](c3ccccc3C3=CCCC3)[C@@H]2CO)s1 | -4.08% (inactive) |
| COCCn1c(C)cc(C(=O)COC(=O)c2ccc(Br)o2)c1C | 28.5% (inactive) |
| CC1CCCC=CC2CC(OC(=O)CN(C)C)CC2C(O)C=CC(=O)O1 (stereo not drawn) | 53.7% (inactive) |
| CCOc1ncccc1C(=O)OC(C)C(=O)Nc1ccc(Cl)cn1 (stereo not drawn) | 24.8% (inactive) |
| O=S(c1ccccc1O)S(=O)c1ccccc1O (stereo not drawn) | 40.7% (inactive) |
| O=C1CC(c2ccc3c(c2)OCO3)Sc2nc3ccccc3n21 (stereo not drawn) | 31.6% (inactive) |
| O=C(C1CCOCC1)N1CC(=O)N2[C@H](C1)[C@H](c1ccc(C#CCc3ccccc3)cc1)[C@@H]2CO | 95.5% (inactive) |
| Cc1ccccc1S(=O)(=O)N1C[C@@H]2N[C@H](C1)C2c1ccc(-c2cccc(C#N)c2)cc1 (stereo partly drawn) | 54.5% (inactive) |
| O=C(CN1C(=O)c2ccccc2S1(=O)=O)Nc1ncc(Cl)cc1Cl | 30.7% (inactive) |

| SMILES | activity change, negative = cytotoxicity |
| --- | --- |
| Cc1ccc(C2(C)NC(=O)N(CC(=O)Nc3cccnc3Cl)C2=O)cc1 (stereo not drawn) | 21.9% (inactive) |
| COc1ccc(CN2CC3(CN(C(=O)Cc4ccccc4)C3)c3c([nH]c4cc(OC)ccc34)[C@H]2CO)cc1 | 21.8% (inactive) |
| Cc1ccc(-c2nn3c(C)nnc3c3ccccc23)cc1S(=O)(=O)NCc1ccccc1 | 16.1% (inactive) |
| CC(=NNc1ccc2ccccc2n1)c1ccccc1O | -29.4% (inactive) |
| COc1cccc(S(=O)(=O)N(C)C[C@H]2OCc3ccccc3-c3c(n(C)c4ccccc34)C(=O)N([C@@H](C)CO)C[C@@H]2C)c1 | 28.3% (inactive) |
| O=C(Nc1nc2ccccc2s1)c1ccc(OCC2CCCO2)cc1 (stereo not drawn) | 24.7% (inactive) |
| C[C@H]1CCCCO[C@H](CN(C)Cc2ccc(C(F)(F)F)cc2)[C@@H](C)CN([C@@H](C)CO)C(=O)c2cc(NC(=O)Nc3cccc4ccccc34)ccc2O1 | 29.1% (inactive) |
| C[C@H]1CN([C@@H](C)CO)C(=O)c2c(c3ccccc3n2C)-c2ccccc2CO[C@H]1CN(C)C(=O)Nc1ccccc1C(F)(F)F | -4.57% (inactive) |
| CC(C)Cc1ccc(C(C)/C=C2/CCC(CN3CCCCC3)C2=O)cc1 (stereo not drawn) | 26.2% (inactive) |
| COc1cccc(S(=O)(=O)N(C)C[C@H]2OCc3ccccc3-c3c(n(C)c4ccccc34)C(=O)N([C@H](C)CO)C[C@@H]2C)c1 | 20.3% (inactive) |
| Cc1ccc2nc(C(F)(F)F)c(C#N)c(N)c2c1 | 1.7% (inactive) |
| N#C[C@H]1[C@@H](c2ccccc2-c2ccccc2)[C@@H](CO)N1C(=O)NC1CCCC1 | -17.1% (inactive) |
| Cc1cnc(NC(=O)c2ccc(OCC3CCCO3)cc2)s1 (stereo not drawn) | 5.83% (inactive) |
| CC(=O)Nc1nc2nc(-c3ccccc3)cc(-c3ccccc3)n2n1 | 47.9% (inactive) |
| Cc1ccc(-c2cc(C(=O)N(C)CC(=O)Nc3ccccc3Br)c3ccccc3n2)o1 | 130% (inactive) |
| Cn1c(CO)nc2cc(N)ccc21 | 34.6% (inactive) |
| O=C(C1CCOCC1)N1CC(=O)N2[C@H](C1)[C@@H](c1ccc(C#CCc3ccccc3)cc1)[C@@H]2CO | 47.9% (inactive) |
| N#CC(C#N)=NNc1cccc(Cl)c1 | 69.4% (inactive) |
| Cc1ccccc1C(=O)N1CCC(C(=O)Nc2nc3ccc(F)cc3s2)CC1 | 18.4% (inactive) |
| CC(=O)c1cc(-c2ccccc2)n(CC(=O)NCc2cccs2)c1C | 2.3% (inactive) |
| Cc1ccccc1-c1ccc2c(c1)O[C@@H](CN(C)C(=O)Nc1ccc(C(F)(F)F)cc1)[C@@H](C)CN([C@@H](C)CO)S2(=O)=O | 16.7% (inactive) |
| COc1ccc(C(=O)/C=C/C(=O)N(CC(=O)NC2CCCCC2)Cc2ccc(F)cc2)c(O)c1 | 46.2% (inactive) |
| O=C1C=CC(=O)C2=C1C1c3ccccc3C2c2ccccc21 | 90.3% (inactive) |

| SMILES | activity change, negative = cytotoxicity |
| --- | --- |
| CC1(C)C(=O)C=C[C@@]2(C)C1C(=O)C(=O)[C@]1(C)C2CC[C@@]2(C)[C@H](c3ccoc3)C[C@H]3O[C@]321 (stereo partly drawn) | 161% (inactive) |
| Cc1cc(C(=O)COC(=O)c2cccn2C)c(C)n1Cc1ccco1 | 23.8% (inactive) |
| CCCCCCCCCc1ccc(OCCOCCOCCOCCOCCOCCOCCOCCOCCO)cc1 | 13.3% (inactive) |
| Cn1cnc(S(=O)(=O)N2C[C@@H]3N[C@H](C2)C3c2ccc(-c3ccccc3F)cc2)c1 (stereo partly drawn) | 36.7% (inactive) |
| N#Cc1cccc(-c2ccc(C3[C@@H]4CN(C(=O)Nc5ccc(C(F)(F)F)cc5)C[C@H]3N4)cc2)c1 (stereo partly drawn) | -11.5% (inactive) |
| Cc1noc(C)c1S(=O)(=O)Nc1ccc2c(c1)C(=O)N([C@H](C)CO)C[C@@H](C)[C@H](CN(C)C(=O)Nc1cccc3ccccc13)OCCCC[C@@H](C)O2 | 33.4% (inactive) |
| CC(=O)OC1CCC2(C)C(CCC3C4CC=C(C(C)=O)C4(C)OC(=O)CC32)C1 (stereo not drawn) | 133% (inactive) |
| C[C@@H]1CN([C@H](C)CO)C(=O)c2cc(NS(=O)(=O)c3cccs3)ccc2O[C@@H](C)CCCCO[C@H]1CN(C)Cc1ccc(Cl)c(Cl)c1 | 16.1% (inactive) |
| CS(=O)(=O)c1ccc(C(=O)OCC(=O)NC(=O)C2COc3ccccc3O2)cc1[N+](=O)[O-] (stereo not drawn) | 25.3% (inactive) |
| Nc1ccc(-c2cccc3c(=O)cc(N4CCOCC4)oc23)cc1 | 15.1% (inactive) |
| Cc1ccc2c(c1)C(O)(CC(=O)/C=C/C=C/c1ccccc1)C(=O)N2 (stereo not drawn) | 24.8% (inactive) |
| N#C[C@@H]1[C@H](c2ccc(C#Cc3ccc(F)cc3)cc2)[C@@H](CO)N1C(=O)C1CCC1 | 5.33% (inactive) |
| C[C@H]1CCCC(=O)CCC/C=C/c2cc(O)cc(O)c2C(=O)O1 | 29.3% (inactive) |
| CC1CC(C)CC(C)C(O)C(C#N)=CC=CCC(C2CCCC2C(=O)O)OC(=O)CC(O)C(C)C1 (stereo not drawn) | -8.2% (inactive) |
| COc1ccc(-c2cnc3c(c2)C(=O)N([C@H](C)CO)C[C@@H](C)[C@@H](CN(C)C(=O)Nc2c(C)noc2C)O3)cc1 | 49.3% (inactive) |
| N#C[C@@H]1[C@H](c2ccc(C#Cc3ccccc3F)cc2)[C@@H](CO)N1C(=O)C1CC1 | 38% (inactive) |
| C=C1C(=O)OC2C=C(CO)C3OC3C3OC3(C)CC(OC(=O)/C(=C/C)COC(C)=O)C12 (stereo not drawn) | 17.5% (inactive) |
| COc1cccc(S(=O)(=O)N(C)C[C@@H]2OCc3ccccc3-c3c(n(C)c4ccccc34)C(=O)N([C@@H](C)CO)C[C@@H]2C)c1 | 3.23% (inactive) |
| CC(=O)NC12CC3CC(C1)CC(C(=O)OCC(=O)c1ccc4c(c1)OCCO4)(C3)C2 | 20.6% (inactive) |
| Cc1nc(C)c(C(=O)Nc2ncc([N+](=O)[O-])s2)o1 | 29.6% (inactive) |
| CCOc1ccc(OCc2cccc(C(=O)N3CCOCC3)c2)cc1 | 42% (inactive) |

Same assay, conditions: cytotoxicity, CellTiter-Glo ATP luminescence; at 11 µM (top of the series)

| SMILES | activity change, negative = cytotoxicity |
| --- | --- |
| N#C[C@@H]1[C@@H](c2ccccc2-c2ccc(F)cc2)[C@H](CO)N1C(=O)NC1CCCCC1 | 19.3% (inactive) |
